Assay results published in US20160289186A1, “FLUOROMETHYL-SUBSTITUTED PYRROLE CA[…]” (Grunenthal GmbH, priority 2013, published 2016).

Molecular target: T1, Human CaV2.2 channels (Homo sapiens, UniProt Q00975)
T1 construct: expressed in transfected cells; host or cells: HEK293
Experiment: Fluorescent (FLIPR) assay for CaV2.2 channels using potassium depolarization to induce channel opening
Type: cell-based
Settings: 3 μM compound; 30 mM KCl assay buffer (inactivated channel state); HEK293 cells stably expressing human CaV2.2; read-out: Activity Category: %-Inhib (CaV2.2) @3 μM @30 mM KCl
Text: In the process, the Ca^2+ influx is quantified in the FLIPR assay with the aid of a Ca^2+-sensitive dye (type Fluo-4, Molecular Probes Europe BV, Leiden, the Netherlands) in a fluorescent imaging plate reader (FLIPR 3, Molecular Devices, Sunnyvale, USA), as described hereinafter.
Human CaV2.2 channels were stably expressed in HEK293 cells together with alpha2-delta and beta subunits of voltage gated calcium channels. In addition, an inwardly rectifying potassium channel (Kir2.3) was stably expressed in these cells to augment control of the cell membrane potential by the concentration of extracellular potassium ions. Raise of the extracellular potassium concentration leads to depolarization of the membrane potential and thus regulates the voltage dependent state of CaV2.2 channels. For preparation, cells were seeded in black poly-D-lysine coated 96-well plates (Becton Dickinson, Biocoat 4640) in 100 μL medium [500 mL DMEM/F-12 plus Glutamax (Invitrogen 31331-093) plus 5.5 mL MEM NEAA 100× (Invitrogen 11140-035) plus 50 mL FBS decomplemented (Invitrogen 10270-106) plus 200 μg/mL Geneticin (Invitrogen 10131-027) plus 50 μg/mL Hygromycin B (Invitrogen 10687-010) plus 2 μg/mL Blasticidin (anti-bl5b Invivo-Gen) plus 0.2 μg/mL Puromycin (A 11138-03)] at a cell density of 30.000 cells per well. Plates were incubated at 37° C. (5% CO2) for 20 to 23 h. On the day of experiment medium was discarded and cells were loaded with Fluo 4 by addition of 100 μL of basic assay buffer (10 mM HEPES, 1 mM KCl, 149 mM NaCl, 0.8 mM CaCl2, 1.7 mM MgCl2, 10 mM Glucose, 0.1% BSA. pH 7.4) containing 2 μM Fluo 4 (Molecular Probes; F-14201), 0.01% pluronic acid (Molecular Probes; P-6866) and 2.5 mM probenecid (Molecular Probes; P36400). Cells were incubated in the dark at 25° C. for 60 min. Then dye containing buffer was discarded and 100 μL basic (1 mM KCl) or alternative (30 mM KCl) assay buffer was added. The alternative assay buffer contained altered concentrations of KCl (30 mM) and NaCl (120 mM) and was used in order to promote the inactivated channel state. After that 25 μL of basic or alternative assay buffer with or without test compound were added and cells were incubated again in the dark at 25° C. for 15 min. Fluorescence intensity was measured on a FLIPR 3 instrument (Molecular Devices Corp., Sunnyvale, Calif.) with excitation at 480 nm and emission at 535 nm. After continuously reading fluorescence for 30 sec, 50 μL of basic assay buffer containing 210 mM KCl (NaCl omitted) were added for depolarization. Peak fluorescent signal intensity was determined and the amplitude of the peak signal, normalized to base line, was used to measure channel inhibition by test compounds.

T1 sequence (Q00975 whole entry): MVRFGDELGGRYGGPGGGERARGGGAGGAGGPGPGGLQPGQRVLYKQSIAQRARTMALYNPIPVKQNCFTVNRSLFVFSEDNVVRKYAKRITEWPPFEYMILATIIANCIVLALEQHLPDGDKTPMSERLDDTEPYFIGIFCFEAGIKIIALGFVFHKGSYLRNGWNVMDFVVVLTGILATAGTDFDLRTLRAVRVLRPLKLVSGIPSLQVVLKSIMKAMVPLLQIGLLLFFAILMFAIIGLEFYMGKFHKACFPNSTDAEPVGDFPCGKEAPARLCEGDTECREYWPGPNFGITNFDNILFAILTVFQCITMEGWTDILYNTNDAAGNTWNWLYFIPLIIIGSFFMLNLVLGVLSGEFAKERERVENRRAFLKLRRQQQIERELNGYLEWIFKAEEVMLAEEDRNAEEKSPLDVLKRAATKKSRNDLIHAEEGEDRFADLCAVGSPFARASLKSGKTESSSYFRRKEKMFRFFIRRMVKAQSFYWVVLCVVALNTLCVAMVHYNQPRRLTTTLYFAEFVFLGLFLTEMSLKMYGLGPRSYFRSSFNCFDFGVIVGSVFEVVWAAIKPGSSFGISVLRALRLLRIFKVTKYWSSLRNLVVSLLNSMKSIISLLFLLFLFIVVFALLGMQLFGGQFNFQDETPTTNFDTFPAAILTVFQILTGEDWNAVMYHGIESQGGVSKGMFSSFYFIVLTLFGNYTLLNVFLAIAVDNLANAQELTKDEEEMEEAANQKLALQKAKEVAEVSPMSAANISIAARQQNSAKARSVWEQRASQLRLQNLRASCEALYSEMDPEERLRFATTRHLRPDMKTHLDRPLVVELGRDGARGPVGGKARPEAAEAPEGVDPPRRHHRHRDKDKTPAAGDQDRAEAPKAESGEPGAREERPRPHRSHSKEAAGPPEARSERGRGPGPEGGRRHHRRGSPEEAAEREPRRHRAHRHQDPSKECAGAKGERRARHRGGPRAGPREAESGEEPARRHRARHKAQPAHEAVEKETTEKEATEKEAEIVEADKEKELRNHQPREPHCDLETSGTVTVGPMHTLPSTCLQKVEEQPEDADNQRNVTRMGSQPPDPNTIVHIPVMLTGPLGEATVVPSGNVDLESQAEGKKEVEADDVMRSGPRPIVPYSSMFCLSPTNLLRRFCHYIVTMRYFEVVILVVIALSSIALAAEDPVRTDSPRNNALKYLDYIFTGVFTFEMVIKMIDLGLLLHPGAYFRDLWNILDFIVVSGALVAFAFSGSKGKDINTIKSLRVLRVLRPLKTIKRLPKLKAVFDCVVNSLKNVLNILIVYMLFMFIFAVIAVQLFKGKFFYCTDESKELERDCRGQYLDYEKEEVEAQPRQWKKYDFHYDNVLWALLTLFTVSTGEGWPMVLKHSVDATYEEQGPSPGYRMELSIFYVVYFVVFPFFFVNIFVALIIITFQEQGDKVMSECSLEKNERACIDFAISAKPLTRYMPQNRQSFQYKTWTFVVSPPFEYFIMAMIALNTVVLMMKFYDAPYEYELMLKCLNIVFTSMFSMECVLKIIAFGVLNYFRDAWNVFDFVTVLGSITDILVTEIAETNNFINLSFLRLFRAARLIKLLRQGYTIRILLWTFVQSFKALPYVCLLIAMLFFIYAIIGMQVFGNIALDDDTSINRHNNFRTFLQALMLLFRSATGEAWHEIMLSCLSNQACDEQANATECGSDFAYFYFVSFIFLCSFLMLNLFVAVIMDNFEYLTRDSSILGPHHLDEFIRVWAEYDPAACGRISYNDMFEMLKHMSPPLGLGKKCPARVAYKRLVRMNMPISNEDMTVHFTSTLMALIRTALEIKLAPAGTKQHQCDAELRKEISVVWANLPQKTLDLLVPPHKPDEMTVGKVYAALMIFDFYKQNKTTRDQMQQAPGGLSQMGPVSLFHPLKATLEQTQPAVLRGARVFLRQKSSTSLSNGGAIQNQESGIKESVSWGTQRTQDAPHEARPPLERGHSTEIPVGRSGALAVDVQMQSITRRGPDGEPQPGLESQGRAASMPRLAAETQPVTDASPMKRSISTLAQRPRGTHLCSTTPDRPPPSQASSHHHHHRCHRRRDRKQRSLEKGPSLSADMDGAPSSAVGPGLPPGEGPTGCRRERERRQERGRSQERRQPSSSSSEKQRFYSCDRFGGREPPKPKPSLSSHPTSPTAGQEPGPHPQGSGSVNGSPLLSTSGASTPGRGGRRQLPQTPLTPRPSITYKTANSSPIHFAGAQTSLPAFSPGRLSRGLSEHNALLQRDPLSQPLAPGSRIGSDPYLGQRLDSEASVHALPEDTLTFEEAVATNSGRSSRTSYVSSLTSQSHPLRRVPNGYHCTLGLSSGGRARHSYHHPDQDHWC
T1 sequence (P54284 whole entry, further chain): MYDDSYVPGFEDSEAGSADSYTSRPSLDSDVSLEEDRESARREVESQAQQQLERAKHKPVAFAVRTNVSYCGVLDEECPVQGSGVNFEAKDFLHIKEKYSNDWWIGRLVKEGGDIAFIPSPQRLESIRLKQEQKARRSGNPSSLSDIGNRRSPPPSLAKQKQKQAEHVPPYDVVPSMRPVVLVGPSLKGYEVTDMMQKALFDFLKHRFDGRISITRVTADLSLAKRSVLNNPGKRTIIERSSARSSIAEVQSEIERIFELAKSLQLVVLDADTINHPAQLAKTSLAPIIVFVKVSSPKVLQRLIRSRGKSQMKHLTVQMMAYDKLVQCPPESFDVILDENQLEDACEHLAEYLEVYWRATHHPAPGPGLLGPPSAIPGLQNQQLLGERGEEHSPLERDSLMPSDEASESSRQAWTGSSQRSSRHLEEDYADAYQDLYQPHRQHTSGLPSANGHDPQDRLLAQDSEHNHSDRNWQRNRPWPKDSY
T1 sequence (P54289 25-1103, further chain): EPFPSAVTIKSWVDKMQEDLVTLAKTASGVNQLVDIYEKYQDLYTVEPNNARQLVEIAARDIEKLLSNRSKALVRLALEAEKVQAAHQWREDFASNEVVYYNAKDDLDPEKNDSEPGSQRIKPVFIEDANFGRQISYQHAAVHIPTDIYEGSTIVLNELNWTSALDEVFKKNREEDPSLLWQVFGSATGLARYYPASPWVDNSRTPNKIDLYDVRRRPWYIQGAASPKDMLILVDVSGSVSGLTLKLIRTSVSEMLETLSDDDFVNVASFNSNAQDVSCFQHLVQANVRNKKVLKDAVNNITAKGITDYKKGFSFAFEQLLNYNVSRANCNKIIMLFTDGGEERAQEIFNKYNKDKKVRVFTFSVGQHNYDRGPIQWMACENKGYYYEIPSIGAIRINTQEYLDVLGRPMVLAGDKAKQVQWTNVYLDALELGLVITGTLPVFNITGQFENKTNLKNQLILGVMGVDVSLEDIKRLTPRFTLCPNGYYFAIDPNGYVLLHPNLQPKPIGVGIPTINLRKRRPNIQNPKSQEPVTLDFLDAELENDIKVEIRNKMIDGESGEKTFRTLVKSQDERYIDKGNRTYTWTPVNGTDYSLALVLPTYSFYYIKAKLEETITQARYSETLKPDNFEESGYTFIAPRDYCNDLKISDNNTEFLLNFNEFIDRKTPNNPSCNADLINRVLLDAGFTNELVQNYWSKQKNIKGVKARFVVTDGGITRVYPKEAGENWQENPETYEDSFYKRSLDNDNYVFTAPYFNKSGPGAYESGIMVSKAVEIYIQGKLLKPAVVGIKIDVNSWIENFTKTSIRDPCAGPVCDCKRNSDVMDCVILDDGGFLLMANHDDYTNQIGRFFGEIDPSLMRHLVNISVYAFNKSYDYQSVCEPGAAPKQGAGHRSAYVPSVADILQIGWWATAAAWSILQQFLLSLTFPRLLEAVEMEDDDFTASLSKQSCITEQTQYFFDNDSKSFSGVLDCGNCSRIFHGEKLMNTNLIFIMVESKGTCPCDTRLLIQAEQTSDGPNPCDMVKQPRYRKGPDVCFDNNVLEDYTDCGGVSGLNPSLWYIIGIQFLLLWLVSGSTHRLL

Structure (SMILES) | inhibition at 3 µM [%]
Cc1c(-c2ccc(Cl)cc2)c(C(=O)N(C)C2CCOCC2)n(C2CC2)c1C(F)(F)F [Example 014, 3-(4-Chlorophenyl)-1-cyclopropyl-N,4-dimethyl-N-tetrahydro-pyran-4-yl-5-(trifluoromethyl)-1H-pyrrole-2-carboxylic acid amide] | 75 to 95
CN(C(=O)c1c(-c2ccc(Cl)cc2)cc(C(F)(F)F)n1C1CC1)C1CCOCC1 [Example 015, 3-(4-Chlorophenyl)-1-cyclopropyl-N-methyl-N-tetrahydro-pyran-4-yl-5-(trifluoromethyl)-1H-pyrrole-2-carboxylic acid amide] | 75 to 95
Cc1c(-c2ccc(Cl)cc2)c(C(=O)N(C)CC(C)(C)CN2CCOCC2)n(C2CC2)c1C(F)(F)F [Example 016, 3-(4-Chlorophenyl)-1-cyclopropyl-N-(2,2-dimethyl-3-morpholin-4-yl-propyl)-N,4-dimethyl-5-(trifluoromethyl)-1H-pyrrole-2-carboxylic acid amide] | > 95
CN(CC(C)(C)CN1CCOCC1)C(=O)c1c(-c2ccc(Cl)cc2)cc(C(F)(F)F)n1C1CC1 [Example 017, 3-(4-Chlorophenyl)-1-cyclopropyl-N-(2,2-dimethyl-3-morpholin-4-yl-propyl)-N-methyl-5-(trifluoromethyl)-1H-pyrrole-2-carboxylic acid amide] | 75 to 95
Cc1c(-c2ccc(Cl)cc2)c(C(=O)N(C)CC(C)(C)O)n(C2CC2)c1C(F)(F)F [Example 018, 3-(4-Chlorophenyl)-1-cyclopropyl-N-(2-hydroxy-2-methyl-propyl)-N,4-dimethyl-5-(trifluoromethyl)-1H-pyrrole-2-carboxylic acid amide] | 75 to 95
CN(CC(C)(C)O)C(=O)c1c(-c2ccc(Cl)cc2)cc(C(F)(F)F)n1C1CC1 [Example 019, 3-(4-Chlorophenyl)-1-cyclopropyl-N-(2-hydroxy-2-methyl-propyl)-N-methyl-5-(trifluoromethyl)-1H-pyrrole-2-carboxylic acid amide] | 40 to 75
Cc1cc(CN(C)C(=O)c2c(-c3ccc(Cl)cc3F)c(C)c(C(F)(F)F)n2C2CC2)no1 [Example 020, 3-(4-Chloro-2-fluoro-phenyl)-1-cyclopropyl-N,4-dimethyl-N-[(5-methyl-isoxazol-3-yl)-methyl]-5-(trifluoromethyl)-1H-pyrrole-2-carboxylic acid amide] | > 95
Cc1c(-c2ccc(Cl)cc2F)c(C(=O)N(C)Cc2ccncn2)n(C2CC2)c1C(F)(F)F [Example 021, 3-(4-Chloro-2-fluoro-phenyl)-1-cyclopropyl-N,4-dimethyl-N-(pyrimidin-4-yl-methyl)-5-(trifluoromethyl)-1H-pyrrole-2-carboxylic acid amide] | > 95
Cc1c(-c2ccc(Cl)cc2)c(C(=O)N(C)CC2CCOC2)n(C2CC2)c1C(F)(F)F (stereo not drawn) [Example 022, 3-(4-Chlorophenyl)-1-cyclopropyl-N,4-dimethyl-N-(tetrahydro-furan-3-yl-methyl)-5-(trifluoromethyl)-1H-pyrrole-2-carboxylic acid amide] | > 95
CN(CC1CCOC1)C(=O)c1c(-c2ccc(Cl)cc2)cc(C(F)(F)F)n1C1CC1 (stereo not drawn) [Example 023, 3-(4-Chlorophenyl)-1-cyclopropyl-N-methyl-N-(tetrahydro-furan-3-yl-methyl)-5-(trifluoromethyl)-1H-pyrrole-2-carboxylic acid amide] | 75 to 95
Cc1cnc(CN(C)C(=O)c2c(-c3ccc(Cl)cc3F)c(C)c(C(F)(F)F)n2C2CC2)cn1 [Example 024, 3-(4-Chloro-2-fluoro-phenyl)-1-cyclopropyl-N,4-dimethyl-N-[(5-methyl-pyrazin-2-yl)-methyl]-5-(trifluoromethyl)-1H-pyrrole-2-carboxylic acid amide] | > 95
Cc1c(-c2ccc(Cl)cc2)c(C(=O)N2CC(O)C2)n(C2CC2)c1C(F)(F)F [Example 025, [3-(4-Chlorophenyl)-1-cyclopropyl-4-methyl-5-(trifluoromethyl)-1H-pyrrol-2-yl]-(3-hydroxy-azetidin-1-yl)-methanone] | 75 to 95
